Test system: subjects with IGM
Assay: Multi-center, double-blind, parallel group, randomized study of nateglinide vs placebo before each main meal for 8 weeks in subjects with IGM
Format: in vivo, human
Conditions: nateglinide 30 mg, 60 mg or 120 mg before each main meal, 8 weeks of treatment
Method: Favorable effects can be verified that confirm that hypoglycemic agents such as insulin enhancers can restore early phase insulin secretion and reduce post-prandial glucose levels in subjects with IGM. A multi-center, double-blind, parallel group, randomized study can be conducted in subjects with IGM in order to evaluate the incidence of confirmed hypoglycemia and the effects on prandial glucose associated with the administration of nateglinide 30 mg, 60 mg or 120 mg or placebo before each main meal during 8 weeks of treatment. Subjects are selected on the basis of a 2-hour plasma glucose value after a 75 g oral glucose tolerance test (OGTT) and patients essentially meeting the following additional inclusion criteria are included in the study: • two-hour glycemia post-OGTT between 7.8 to 11.1 mmol/L (one OGTT to be performed during the year before entering the study, the second to be performed within two weeks prior entering the study); • FPG <7 mmol/L; • patients are to have a body mass index (BMI) between 20-32 kg/m2; • patients are to maintain prior diet during the full course of study; • males, non-fertile females, females of child-bearing potential using a medically approved birth control method are included; • the use of other antidiabetics during the trial is not permitted. Corresponding dosages of e.g. nateglinide are administered with a large glass of water 2 (BID), 3 (TID) or 4 (QID) times daily depending on the number of main meals (breakfast, lunch, snack, dinner). The first dose is to be given with the first main meal (standardized meal i.e. 55% carbohydrates, 25% fat and 20% protein). Visits are scheduled to be performed at weeks 0, 2, 4 and 8 and the patients are to be fasted for at least 7 hours. All blood samples for laboratory evaluations are drawn between 07.00 and 10.00 a.m. HbA1c is to be measured at baseline. and after 8 weeks of treatment (fasting glucose and fructosamine). Samples of blood are to be drawn at 10, 20, […], 60, 120, and 180 minutes after drug administration (time 0) and the glucose and insulin levels to be measured. At weeks 0 and 8 visits, patients complete a standard meal challenge containing approximately 500 kcal and measurements of insulin and glucose will be performed. […] With longer treatment and follow-up, conditions and diseases associated with IGM could be prevented or reduced.

SMILES: CC(C)[C@H]1CC[C@H](C(=O)N[C@H](Cc2ccccc2)C(=O)O)CC1 [nateglinide, N-(trans-4-isopropylcyclohexylcarbonyl)-D-phenylalanine]
- 2 hour prandial glucose levels: significantly reduced
- HBA1c: significantly reduced
- early phase insulin secretion: restored
- fructosamine levels: significantly reduced
- progression to type 2 diabetes mellitus: could prevent or delay
